Reference: patent US8338426B2, “Piperazinyl derivatives useful as modulators of the neuropeptide Y2 receptor” (Janssen Pharmaceutica NV, priority 2007, dated 2012)

Key:
rat Y2 receptor = molecular target: T1, rat Y2 receptor (Rattus norvegicus, UniProt Q9ERC0); assay: Neuropeptide Y2 radioligand binding assay, [125I]PYY, rat hippocampus membranes; details: read-out: rY2 pKi (converted)
T1 construct: membranes from rat or mouse hippocampus were prepared; from tissue; host or cells: rat hippocampus membranes
T1 sequence (Q9ERC0 1-381): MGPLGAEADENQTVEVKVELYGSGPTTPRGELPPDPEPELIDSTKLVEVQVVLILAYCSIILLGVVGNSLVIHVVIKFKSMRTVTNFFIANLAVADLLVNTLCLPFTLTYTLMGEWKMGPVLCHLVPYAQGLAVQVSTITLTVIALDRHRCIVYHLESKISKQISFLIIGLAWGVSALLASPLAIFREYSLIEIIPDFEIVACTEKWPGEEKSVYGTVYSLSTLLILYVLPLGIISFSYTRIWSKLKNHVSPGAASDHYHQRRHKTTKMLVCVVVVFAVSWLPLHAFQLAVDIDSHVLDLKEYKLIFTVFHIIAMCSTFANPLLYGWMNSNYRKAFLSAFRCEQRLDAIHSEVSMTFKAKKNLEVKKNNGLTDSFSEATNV
Method: Radioligand binding assays for the human and rat/mouse Y2 receptor were performed as described in Bonaventure, P., D. Nepomuceno, C. Mazur, B. Lord, D. A. Rudolph, J. A. Jablonowski, N. I. Carruthers and T. W. Lovenberg, J Pharmacol Exp Ther. 2004, 308, 1130.
KAN-Ts endogenously expressing Y2 receptors were used, for the rat and mouse Y2 receptor, membranes from rat or mouse hippocampus were prepared. Membranes were incubated with [^125I]PYY (80 pM) in the presence or absence of test compound for 1 h at rt. The reaction was stopped by filtration through GF/C filter plates pre-soaked in 0.3% polyethylenimine and subsequently washed with Tris-HCl, 50 mM, 5 mM EDTA buffer. Plates were dried for 1 h in a 55° C. oven, scintillation fluid was added and the radioactivity was counted in a Packard TopCount. Specific binding to the NPY receptor subtypes was determined by radioactivity that was bound in the presence of 1 μM NPY.
Apparent Ki values were calculated as K=IC50/(1+C/KD), where C is concentration of the radioligand and pKi=−log Ki. Data presented below are expressed as mean±S.E.M.

human Y2 receptor = molecular target: T2, human Y2 receptor (Homo sapiens, UniProt P49146); assay: [35S]GTPγS binding assay in KAN-Ts cells; type: biochemical
T2 construct: KAN-Ts endogenously expressing Y2 receptors were used; endogenous in cells; host or cells: KAN-Ts cells
T2 sequence (P49146 1-381): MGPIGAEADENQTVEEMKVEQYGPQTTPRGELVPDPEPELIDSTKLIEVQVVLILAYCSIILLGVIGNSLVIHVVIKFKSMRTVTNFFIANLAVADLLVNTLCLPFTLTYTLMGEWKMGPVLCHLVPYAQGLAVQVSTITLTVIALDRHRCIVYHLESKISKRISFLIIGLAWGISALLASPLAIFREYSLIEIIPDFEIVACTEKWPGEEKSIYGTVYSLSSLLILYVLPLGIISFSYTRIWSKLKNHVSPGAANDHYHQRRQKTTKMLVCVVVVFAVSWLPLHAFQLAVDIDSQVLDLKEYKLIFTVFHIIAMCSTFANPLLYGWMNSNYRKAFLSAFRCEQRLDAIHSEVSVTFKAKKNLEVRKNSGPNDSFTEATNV
Method: [^35S] GTPγS binding assay in KAN-Ts cells was performed as described in Bonaventure, P., D. Nepomuceno, C. Mazur, B. Lord, D. A. Rudolph, J. A. Jablonowski, N. I. Carruthers and T. W. Lovenberg, J Pharmacol Exp Ther. 2004, 308, 1130.
Assay mixtures (150 were preincubated with compounds for 30 minutes at ambient temperature. Then, 50 μl of [^35S]GTPγS in assay buffer was added to a final concentration of 200 pM and the assay mixtures were incubated for 1 hour at ambient temperature. Reactions were terminated by rapid filtration thought GF/C filters. Filters were washed twice with ice cold 50 mM Tris-HCl, pH 7.4 containing 10 mM MgCl2. Basal [^35S]GTPγS was measured in the absence of compounds. In initial experiments, nonspecific binding was measured in the presence of 100 μM GTPgS. This nonspecific binding never exceeded 10% of basal binding and was thus not subtracted from experimental data. Stimulation of [^35S]GTPγS was determined as percentage over basal and was calculated as one hundred times the difference between stimulated and basal binding (in cpm). […] Data are expressed as mean±S.E.M.
The antagonistic properties of the compound of formula (A) were evaluated in a [^35S]GTPγS binding assay in KAN-Ts cells endogenously expressing human Y2 receptors. […]

[1] = system: panel of 50 receptors, ion channels and transporters; assay: CEREP panel of 50 receptors, ion channels and transporters; type: binding; details: concentrations up to 1 μM
Method: The selectivity of the compound of formula (A) was further evaluated in a large variety of ion-channels, transporters and receptor-binding assays including the Y1 receptor subtype. These assays were performed by CEREP (Celles L'Evescault, France; www.cere.com<http//www.cerea.com>). Selectivity vs the Y5 receptor subtype was evaluated as described in Bonaventure, P., D. Nepomuceno, C. Mazur, B. Lord, D. A. Rudolph, J. A. Jablonowski, N. I. Carruthers and T. W. Lovenberg, J Pharmacol Exp Ther. 2004, 308, 1130.
The compound of formula (A) was assayed by binding in a panel of 50 receptors, ion channels and transporters assays (CEREP) including adenosine (A1,A2A,A3), adrenergic (α1, α2, β1), angiotensin (AT1), dopamine (D1, D2), bradykinin (B2), cholecystokinin (CCKA), galanin (GAL2), melatonin ML1), muscarinic (M1, M2, M3), neurotensin (NTS), neurokinin (NK2, NK3), NPY (Y1, Y2) opiate (m, k, d), serotonin (5-HT1A, 5-HT1B, 5-HT2A, 5-HT3, 5-HT5A, 5-HT6, 5-HT7), somatostatin, vasopressin (V1a), norepinephrine transporter, dopamine transporter and ion channels (sodium, calcium, potassium and chloride).

Ki (rat Y2 receptor): 4.57 nM
IC50 (human Y2 receptor; read-out: hY2 pIC50corr (converted)): 0.0501 nM
effect of compound by itself on [35S]GTPγS binding (human Y2 receptor; up to 10 μM, no PYY): did not affect
inhibition against each receptor of the panel (except NPY Y2) [1]: less than 50%
SMILES: CCN(CC)C(=O)C(c1ccccc1)N1CCN(c2ccc(NC(=O)c3ccccc3-c3cccnc3)cc2F)CC1 (racemic) [Cmpd (A), N-{4-[4-(Diethylcarbamoyl-phenyl-methyl)-piperazin-1-yl]-3-fluoro-phenyl}-2-pyridin-3-yl-benzamide]
